Experiments:
CALU-1 cells = assay: Cell proliferation assay, CALU-1 cells (Cell-titer Glo); assay type: cell-based; settings: Homo sapiens, 120 h incubation
Protocol: The CALU-1 cells were spread on a 96-well ultra-low adsorption plate with 1000 cells and 190 μL/well. After incubating overnight, compound solutions of gradient concentration was prepared, and added 10 μL of DMSO solution of the test compound of each concentration to the cells of each well. The final concentration of the compound is 30000, 10000, 3333.3, 1111.1, 370.4, 123.5, 41.2, 13.7, 4.6, 0 nM (the final concentration of DMSO is 0.25%). Incubated for 120 h at 37° C. and 5% CO2. 60 μL of Cell-titer Glo working solution was added to each well, shaked and mixed, and incubated at room temperature for 10 minutes. The multi-functional microplate reader read the luminescence value, and converted the luminescence value reading into inhibition percentage.
Inhibition percentage=(maximum value−reading)/(maximum value−minimum value)*100.
The “maximum value” was the DMSO control, the “minimum value” indicates the cell-free control group.
Graphpad Prism software was used to perform curve fitting and obtain IC50 value.
The compounds of the examples have good inhibition on CALU-1 cells, and their activity is better than that of ARS-1620. Refer to Table 2 for the IC50 data of some compounds in the examples inhibiting CALU-1 cells.

MIA-PACA-2 cells = assay: Cell proliferation assay, MIA-PACA-2 cells (Cell-titer Glo); assay type: cell-based; settings: Homo sapiens, 96 h incubation
Summary of the method: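 MIA-PACA-2 cells, 600 per well in ultra-low-attachment plates, exposed 96 h at 37 °C to compound at 0.025–10000 nM final (0.25% DMSO). Viability by CellTiter-Glo luminescence; inhibition normalised to DMSO and cell-free controls, IC50 from curve fit.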

[1] = Permeability assay, Caco-2 monolayer cell model; assay type: in vitro ADME; settings: human, Caco-2, compound 5 μM, Verapamil 0 μM; for efflux ratio at 120 min, 5 μM: read-out: RE (Efflux Ratio)
Protocol: The Caco-2 monolayer cell model was used to determine the bidirectional permeability and efflux rate of the example compounds and the comparative compounds. In the experiment, 50 μL of 6.86×10^5 cells/mL Caco-2 cells (passage 45) were seeded into 96-well cell culture plates, and cultured continuously for 14-18 days for transport experiments. The corresponding compound was administered bidirectionally with or without verapamil (P glycoprotein (P-gp) inhibitor), at a concentration of 5 μM. At 37° C., after incubating with shaking at 150 rpm for 120 minutes, the top and basal samples were collected, and the content of each compound in the samples was determined by liquid chromatography tandem mass spectrometry (LC/MS/MS).
Refer to the Table 4 for permeability data of some compounds in the examples.

H358 cells = assay: Cell proliferation assay, H358 cells (Cell-titer Glo); assay type: cell-based; settings: Homo sapiens, NCI-H358, 96 h incubation
Summary of the method: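 H358 cells, 2000 per well in ultra-low-attachment plates, treated after overnight culture with compound at 10000 to 1.5 nM plus 0 (0.25% DMSO final) for 96 h at 37 °C, 5% CO2. Cell-titer Glo luminescence, normalised to DMSO and cell-free controls; IC50 from curve fit.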

SMILES: C=CC(=O)N1CCN(c2ncnc3c(F)c(-c4c(O)cccc4F)c(Cl)cc23)CC1 [ARS-1620, reference compound]
- IC50 (CALU-1 cells): 245 nM
- IC50 (MIA-PACA-2 cells): 284 nM

SMILES: C=CC(=O)N1CC2(CCN(c3nc(C4CCOCC4)nc4c(OCC(F)(F)F)c(-c5c(C)ccc6[nH]ncc56)c(C=C)cc34)CC2)C1 [Compound 6, 1-(7-(7-(5-methyl-1H-indazol-4-yl)-2-(tetrahydro-2H-pyran-4-yl)-8-(2,2,2-trifluoroethoxy)-6-vinylquinazolin-4-yl)-2,7-diazaspiro[3.5]nonan-2-yl)prop-2-en-1-one]
- IC50 (CALU-1 cells): 45.7 nM

SMILES: C=CC(=O)N1CC2(CCN(c3nc(OC4CCN(C5CCOCC5)CC4)nc4c(OCC(F)(F)F)c(-c5c(C)ccc6[nH]ncc56)c(C=C)cc34)CC2)C1 [Compound D1, reference compound]
- Papp A→B at 120 min, 5 μM [1]: 0.06 ×10⁻⁶ cm/s
- Papp B→A at 120 min, 5 μM [1]: 6.75 ×10⁻⁶ cm/s
- efflux ratio at 120 min, 5 μM [1]: 113

SMILES: C=CC(=O)N1CC2(CCN(c3nc(C4CCN(C(C)=O)CC4)nc4c(OCC(F)(F)F)c(-c5c(C)ccc6[nH]ncc56)c(C=C)cc34)CC2)C1 [Example 14, 1-(7-(2-(1-acetylpiperidin-4-yl)-7-(5-methyl-1H-indazol-4-yl)-8-(2,2,2-trifluoroethoxy)-6-vinylquinazolin-4-yl)-2,7-diazaspiro[3.5]nonan-2-yl)prop-2-en-1-one]
- IC50 (MIA-PACA-2 cells): 40.6 nM
- IC50 (H358 cells): 6.4 nM
- Papp A→B at 120 min, 5 μM [1]: 1.33 ×10⁻⁶ cm/s
- Papp B→A at 120 min, 5 μM [1]: 5.82 ×10⁻⁶ cm/s
- efflux ratio at 120 min, 5 μM [1]: 4.36

SMILES: C=CC(=O)N1CC2(CCN(c3nc(C4CCN(C)CC4)nc4c(OCC(F)(F)F)c(-c5c(C)ccc6[nH]ncc56)c(CC)cc34)CC2)C1 [Compound 4, 1-(7-(6-ethyl-7-(5-methyl-1H-indazol-4-yl)-2-(1-methylpiperidin-4-yl)-8-(2,2,2-trifluoroethoxy)quinazolin-4-yl)-2,7-diazaspiro[3.5]nonan-2-yl)prop-2-en-1-one]
- IC50 (CALU-1 cells): 2.9 nM
- Papp A→B at 120 min, 5 μM [1]: 0.21 ×10⁻⁶ cm/s
- Papp B→A at 120 min, 5 μM [1]: 9.64 ×10⁻⁶ cm/s
- efflux ratio at 120 min, 5 μM [1]: 46.5

SMILES: C=CC(=O)N1CC2(CCN(c3nc(C4CCN(C5CCOCC5)CC4)nc4c(OCC(F)(F)F)c(-c5c(C)ccc6[nH]ncc56)c(C=C)cc34)CC2)C1 [Example 58, 1-(7-(7-(5-methyl-1H-indazole-4-yl)-2-(1-(tetrahydro-2H-pyran-4-yl)piperidin-4-yl)-8-(2,2,2-trifluoroethoxy)-6-vinylquinazolin-4-yl)-2,7-diazspiro [3.5]nonan-2-yl) propyl-2-en-1-one]
- IC50 (MIA-PACA-2 cells): 2.6 nM
- IC50 (H358 cells): 4.4 nM
- Papp A→B at 120 min, 5 μM [1]: 0.34 ×10⁻⁶ cm/s
- Papp B→A at 120 min, 5 μM [1]: 10.3 ×10⁻⁶ cm/s
- efflux ratio at 120 min, 5 μM [1]: 30.6

SMILES: C=CC(=O)N1CC2(CCN(c3nc(C4CCN(C)CC4)nc4c(F)c(-c5c(C)ccc6[nH]ncc56)c(C=C)cc34)CC2)C1 [Compound 5, 1-(7-(8-fluoro-7-(5-methyl-1H-indazol-4-yl)-2-(1-methylpiperidin-4-yl)-synthesis of 6-vinylquinazolin-4-yl)-2,7-diazaspiro[3.5]nonan-2-yl)prop-2-en-1-one]
- IC50 (CALU-1 cells): 103 nM

SMILES: C=CC(=O)N1CC2(CCN(c3nc(C4CCN(C)C4)nc4c(OCC(F)(F)F)c(-c5c(C)ccc6[nH]ncc56)c(C=C)cc34)CC2)C1 (centres unmarked) [Compound 8]
- IC50 (CALU-1 cells): 4.6 nM

SMILES: C=CC(=O)N1CC2(CCN(c3nc(C4CCN(C)CC4)nc4c(OCC(F)(F)F)c(-c5c(C)ccc6[nH]ncc56)c(C=C)cc34)CC2)C1 [Compound 1, 1-(7-(7-(5-methyl-1H-indazol-4-yl)-2-(1 methylpiperidin-4-yl)-8-(2,2,2-trifluoroethoxy)-6-vinylquinazolin-4-yl)-2,7-diazaspiro[3.5]nonan-2-yl)prop-2-en-1-one]
- IC50 (CALU-1 cells): 2.7 nM
- Papp A→B at 120 min, 5 μM [1]: 0.51 ×10⁻⁶ cm/s
- Papp B→A at 120 min, 5 μM [1]: 7.18 ×10⁻⁶ cm/s
- efflux ratio at 120 min, 5 μM [1]: 14.2

Reference: patent US20230219956A1 (BETTA PHARMACEUTICALS CO.,LTD, priority 2019, published 2023)
